From ChEMBL document CHEMBL1136651, “Structure-based de novo design of non-nucleoside adenosine deaminase inhibitors” (Bioorg Med Chem Lett, 2003) come the findings set out here.

For one data set, the target named is T1, Adenosine deaminase (Homo sapiens, UniProt P00813).
T1 sequence (P00813 whole entry): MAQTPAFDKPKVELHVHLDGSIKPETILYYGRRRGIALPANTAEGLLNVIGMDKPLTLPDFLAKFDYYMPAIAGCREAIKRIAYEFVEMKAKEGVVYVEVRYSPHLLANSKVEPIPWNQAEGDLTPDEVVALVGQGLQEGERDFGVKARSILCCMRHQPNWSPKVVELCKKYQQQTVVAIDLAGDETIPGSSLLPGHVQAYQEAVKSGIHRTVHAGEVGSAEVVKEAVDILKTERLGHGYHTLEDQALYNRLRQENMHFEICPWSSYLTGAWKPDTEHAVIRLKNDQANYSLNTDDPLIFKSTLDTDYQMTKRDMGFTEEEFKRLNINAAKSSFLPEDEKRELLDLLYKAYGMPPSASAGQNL

A short description of data set [1]: Pharmacokinetic property (C(max)) was determined after po administration of 32 mg/kg in mice. In kind it is ADME, organism-based. Further details: dose 32 mg/kg, route oral. The note with it: mouse, in vivo.
A short description of data set [2]: Pharmacokinetic property (AUC) was determined after po administration of 32 mg/kg in mice. In kind it is ADME, organism-based. Further details: dose 32 mg/kg, route oral. Particulars: mouse, in vivo.
Data set [3] can be described thus: Pharmacokinetic property (C(max)) was determined after ip administration of 32 mg/kg in mice. It counts as ADME, organism-based. Also noted: dose 32 mg/kg, route intraperitoneal. Particulars: mouse, in vivo.
Data set [4] is described as follows: Pharmacokinetic property (AUC) was determined after ip administration of 32 mg/kg in mice. In kind it is ADME, organism-based. Also noted: dose 32 mg/kg, route intraperitoneal. Particulars: mouse, in vivo.

In general, Ki refers to the dissociation constant of the complex between target and ligand, obtained from inhibition or displacement. What is called Cmax is the maximum level reached in the sampled fluid or tissue. In general, AUC refers to the area under the concentration-time curve, a measure of exposure. Low values mean less exposure, high ones more exposure.

Description for Adenosine deaminase: Inhibition constant against human adenosine deaminase was determined

In the case of `COC(=O)c1cn(C(CO)c2ccccc2)cn1` (stereo not given), the inhibition constant (Ki) at Adenosine deaminase is greater than 100 µM.

On Adenosine deaminase, `NC(=O)c1cn(C(CO)c2ccccc2)cn1` (stereo not given) showed a Ki of 54 µM.

Take `OCc1cn(C(CO)c2ccccc2)cn1` (stereo not given): on Adenosine deaminase, the Ki was greater than 100 µM.

Regarding `O=C(O)c1cn(C(CO)c2ccccc2)cn1` (stereo not given), at Adenosine deaminase, the Ki was greater than 100 µM.

For `CCCCCC[C@@H]([C@@H](C)O)n1cnc2c(N)ncnc21` [EHNA], the Cmax in data set [1] amounted to 1100 ng/mL; in data set [3] it was 5900 ng/mL. The AUC in data set [2] was 1000 ng·h/mL; in data set [4], 2200 ng·h/mL. The same molecule showed an inhibition constant (Ki) on Adenosine deaminase of 0.0037 µM.

As for `NC(=O)c1cn(C(CO)CCc2ccccc2)cn1` (stereo not given) [FR-221647], the Cmax is 15200 ng/mL in data set [1] and 25200 ng/mL in data set [3]. The exposure (AUC) worked out at 29900 ng·h/mL in data set [2] and 29600 ng·h/mL in data set [4].

The molecule `OC[C@H]1O[C@@H](n2cnc3c2NC=NC[C@H]3O)C[C@@H]1O` [PENTOSTATIN] registered a peak concentration (Cmax) in data set [3] of 12200 ng/mL. For the same molecule, the AUC in data set [4] turned out to be 9500 ng·h/mL.
